{
  "source": "patent US9670261B2",
  "about": "(Sanofi, priority 2012, dated 2017)",
  "target": "T1, human GLP-1 receptor (Homo sapiens, UniProt P43220)",
  "T1 construct": "expressed in transfected cells",
  "T1 sequence (P43220 24-463)": "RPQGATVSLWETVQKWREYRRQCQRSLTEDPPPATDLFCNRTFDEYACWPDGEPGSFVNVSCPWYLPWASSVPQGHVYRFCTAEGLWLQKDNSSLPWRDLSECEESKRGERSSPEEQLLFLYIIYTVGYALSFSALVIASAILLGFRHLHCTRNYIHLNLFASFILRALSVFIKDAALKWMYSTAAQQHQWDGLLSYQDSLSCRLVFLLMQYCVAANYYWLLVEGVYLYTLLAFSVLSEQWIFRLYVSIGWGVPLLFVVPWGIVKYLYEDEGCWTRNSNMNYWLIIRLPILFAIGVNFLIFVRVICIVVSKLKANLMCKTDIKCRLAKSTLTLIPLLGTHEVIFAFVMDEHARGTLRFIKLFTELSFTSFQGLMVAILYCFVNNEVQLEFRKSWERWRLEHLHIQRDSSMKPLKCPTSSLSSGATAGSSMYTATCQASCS",
  "assay": "cAMP response (HTRF) of HEK-293 cells stably expressing human GLP-1 receptor",
  "format": "cell-based",
  "settings": "read-out: EC50 hGLP-1 R",
  "procedure": "cAMP content of cells was determined using a kit from Cisbio Corp. (cat. no. 62AM4PEC) based on HTRF (Homogenous Time Resolved Fluorescence). For preparation, cells were split into T175 culture flasks and grown overnight to near confluency in medium (DMEM/10% FBS). Medium was then removed and cells washed with PBS lacking calcium and magnesium, followed by proteinase treatment with accutase (Sigma-Aldrich cat. no. A6964). Detached cells were washed and resuspended in assay buffer (1×HBSS; 20 mM HEPES, 0.1% BSA, 2 mM IBMX) and cellular density determined. They were then diluted to 400000 cells/ml and 25 μl-aliquots dispensed into the wells of 96-well plates. For measurement, 25 μl of test compound in assay buffer was added to the wells, followed by incubation for 30 minutes at room temperature.",
  "note": "pEC50: −log10 of the molar value. Where two headings read alike, the source gives them in different places. *1 amine or outer side, *2 acyl side, *3 side chain or, on linkers, in order; H or OH if unused. Where a SMILES comes first, the peptide text is derived from it. Side-chain parts run from the residue outwards. [ ]: non-standard residue; d: D form. The star is where a group is joined. γGlu = O=C(O)[C@H](CCC(=O)[*:2])N[*:1]; Stearoyl = CCCCCCCCCCCCCCCCCC(=O)*; Palmitoyl = CCCCCCCCCCCCCCCC(=O)*; Aib = CC(C)(N)C(=O)O",
  "data": [
    {"smiles": "CC[C@H](C)[C@H](NC(=O)[C@H](Cc1ccccc1)NC(=O)[C@H](CC(=O)O)NC(=O)[C@H](CCC(N)=O)NC(=O)[C@H](C)NC(=O)[C@H](C)NC(=O)[C@H](CCCNC(=N)N)NC(=O)[C@H](CO)NC(=O)[C@H](CCC(=O)O)NC(=O)[C@H](CC(C)C)NC(=O)[C@H](CCC(N)=O)NC(=O)[C@@H](NC(=O)[C@H](CO)NC(=O)[C@H](CC(C)C)NC(=O)[C@H](CC(=O)O)NC(=O)[C@H](CO)NC(=O)[C@@H](NC(=O)[C@H](Cc1ccccc1)NC(=O)[C@@H](NC(=O)CNC(=O)[C@H](CCC(N)=O)NC(=O)C(C)(C)NC(=O)[C@@H](N)Cc1ccc(O)cc1)[C@@H](C)O)[C@@H](C)O)[C@@H](C)CC)C(=O)N[C@@H](CCC(=O)O)C(=O)N[C@@H](Cc1c[nH]c2ccccc12)C(=O)N[C@@H](CC(C)C)C(=O)N[C@@H](CCCCN)C(=O)N[C@@H](C)C(=O)NCC(=O)NCC(=O)N1CCC[C@H]1C(=O)N[C@@H](CO)C(=O)N[C@@H](CO)C(=O)NCC(=O)N[C@@H](C)C(=O)N1CCC[C@H]1C(=O)N1CCC[C@H]1C(=O)N1CCC[C@H]1C(=O)N[C@@H](CO)C(N)=O", "note": "[SEQ ID NO: 40, Y-Aib-QGTFTSDLSIQLESRAAQDFIEWLKAGGPSSGAPPPS-NH2, reference compound] (H-Y[Aib]QGTFTSDLSIQLESRAAQDFIEWLKAGGPSSGAPPPS-NH2; N-terminus assumed)", "values": [
      {"measurement": "pEC50", "setting": "Table 8, functionalized vs non-functionalized position 14", "result": 11.49}
    ]},
    {"smiles": "CCCCCCCCCCCCCCCC(=O)N[C@@H](CCC(=O)NCCCC[C@H](NC(=O)[C@H](CCC(N)=O)NC(=O)[C@@H](NC(=O)[C@H](CO)NC(=O)[C@H](CC(C)C)NC(=O)[C@H](CC(=O)O)NC(=O)[C@H](CO)NC(=O)[C@@H](NC(=O)[C@H](Cc1ccccc1)NC(=O)[C@@H](NC(=O)CNC(=O)[C@H](CCC(=O)O)NC(=O)C(C)(C)NC(=O)[C@@H](N)Cc1ccc(O)cc1)[C@@H](C)O)[C@@H](C)O)[C@@H](C)CC)C(=O)N[C@@H](CCC(=O)O)C(=O)N[C@@H](CO)C(=O)N[C@@H](CCCNC(=N)N)C(=O)N[C@@H](C)C(=O)N[C@@H](C)C(=O)NC(C)(C)C(=O)N[C@@H](CC(=O)O)C(=O)N[C@@H](Cc1ccccc1)C(=O)N[C@H](C(=O)N[C@@H](CCC(=O)O)C(=O)N[C@@H](Cc1c[nH]c2ccccc12)C(=O)N[C@@H](CC(C)C)C(=O)N[C@@H](CCCCN)C(=O)N[C@@H](CC(N)=O)C(=O)N[C@H](C(=O)NCC(=O)N1CCC[C@H]1C(=O)N[C@@H](CO)C(=O)N[C@@H](CO)C(=O)NCC(=O)N[C@@H](C)C(=O)N1CCC[C@H]1C(=O)N1CCC[C@H]1C(=O)N1CCC[C@H]1C(=O)N[C@@H](CO)C(N)=O)[C@@H](C)O)[C@@H](C)CC)C(=O)O", "note": "[SEQ ID NO: 24, Y-Aib-E-G-T-F-T-S-D-L-S-I-Q-K(γE-x53)-E-S-R-A-A-Aib-D-F-I-E-W-L-K-N-T-G-P-S-S-G-A-P-P-P-S-NH2] (H-Y[Aib]EGTFTSDLSIQK([γGlu-Palmitoyl])ESRAA[Aib]DFIEWLKNTGPSSGAPPPS-NH2)", "values": [
      {"measurement": "pEC50", "setting": "Table 7, cAMP formation", "result": 10.87}
    ]},
    {"smiles": "CCCCCCCCCCCCCCCCCC(=O)N[C@@H](CCC(=O)NCCCC[C@H](NC(=O)[C@H](CCC(N)=O)NC(=O)[C@@H](NC(=O)[C@H](CO)NC(=O)[C@H](CC(C)C)NC(=O)[C@H](CC(=O)O)NC(=O)[C@H](CO)NC(=O)[C@@H](NC(=O)[C@H](Cc1ccccc1)NC(=O)[C@@H](NC(=O)CNC(=O)[C@H](CCC(=O)O)NC(=O)C(C)(C)NC(=O)[C@@H](N)Cc1ccc(O)cc1)[C@@H](C)O)[C@@H](C)O)[C@@H](C)CC)C(=O)N[C@@H](CCC(=O)O)C(=O)N[C@@H](CCCCN)C(=O)N[C@@H](CCCNC(=N)N)C(=O)N[C@@H](C)C(=O)N[C@@H](C)C(=O)N[C@@H](CCC(N)=O)C(=O)N[C@@H](CCC(=O)O)C(=O)N[C@@H](Cc1ccccc1)C(=O)N[C@H](C(=O)N[C@@H](CCC(=O)O)C(=O)N[C@@H](Cc1c[nH]c2ccccc12)C(=O)N[C@@H](CC(C)C)C(=O)N[C@@H](CCCCN)C(=O)N[C@@H](CC(N)=O)C(=O)N[C@H](C(=O)NCC(=O)N1CCC[C@H]1C(=O)N[C@@H](CO)C(=O)N[C@@H](CO)C(=O)NCC(=O)N[C@@H](C)C(=O)N1CCC[C@H]1C(=O)N1CCC[C@H]1C(=O)N1CCC[C@H]1C(=O)N[C@@H](CO)C(N)=O)[C@@H](C)O)[C@@H](C)CC)C(=O)O", "note": "[SEQ ID NO: 19, Y-Aib-E-G-T-F-T-S-D-L-S-I-Q-K(γE-x70)-EKRAAQEFIEWLKNTGPSSGAPPPS-NH2] (H-Y[Aib]EGTFTSDLSIQK([γGlu-Stearoyl])EKRAAQEFIEWLKNTGPSSGAPPPS-NH2)", "values": [
      {"measurement": "pEC50", "setting": "Table 7, cAMP formation", "result": 11.40}
    ]},
    {"smiles": "CCCCCCCCCCCCCCCC(=O)N[C@@H](CCC(=O)NCCCC[C@H](NC(=O)[C@H](CCC(N)=O)NC(=O)[C@@H](NC(=O)[C@H](CO)NC(=O)[C@H](CC(C)C)NC(=O)[C@H](CC(=O)O)NC(=O)[C@H](CO)NC(=O)[C@@H](NC(=O)[C@H](Cc1ccccc1)NC(=O)[C@@H](NC(=O)CNC(=O)[C@H](CCC(N)=O)NC(=O)C(C)(C)NC(=O)[C@@H](N)Cc1ccc(O)cc1)[C@@H](C)O)[C@@H](C)O)[C@@H](C)CC)C(=O)N[C@@H](CC(=O)O)C(=O)N[C@@H](CO)C(=O)N[C@@H](CCCNC(=N)N)C(=O)N[C@@H](C)C(=O)N[C@@H](C)C(=O)N[C@@H](CCC(N)=O)C(=O)N[C@@H](CCC(=O)O)C(=O)N[C@@H](Cc1ccccc1)C(=O)N[C@H](C(=O)N[C@@H](CCC(=O)O)C(=O)N[C@@H](Cc1c[nH]c2ccccc12)C(=O)N[C@@H](CC(C)C)C(=O)N[C@@H](CCCCN)C(=O)N[C@@H](C)C(=O)NCC(=O)NCC(=O)N1CCC[C@H]1C(=O)N[C@@H](CO)C(=O)N[C@@H](CO)C(=O)NCC(=O)N[C@@H](C)C(=O)N1CCC[C@H]1C(=O)N1CCC[C@H]1C(=O)N1CCC[C@H]1C(=O)N[C@@H](CO)C(N)=O)[C@@H](C)CC)C(=O)O", "note": "[SEQ ID NO: 29, Y-Aib-Q-G-T-F-T-S-D-L-S-I-Q-K(γE-x53)-DSRAAQEFIEWLKAGGPSSGAPPPS-NH2] (H-Y[Aib]QGTFTSDLSIQK([γGlu-Palmitoyl])DSRAAQEFIEWLKAGGPSSGAPPPS-NH2)", "values": [
      {"measurement": "pEC50", "setting": "Table 7, cAMP formation", "result": 11.15}
    ]},
    {"smiles": "CCCCCCCCCCCCCCCC(=O)N[C@@H](CCC(=O)NCCCC[C@H](NC(=O)[C@H](CCC(N)=O)NC(=O)[C@@H](NC(=O)[C@H](CO)NC(=O)[C@H](CC(C)C)NC(=O)[C@H](CC(=O)O)NC(=O)[C@H](CO)NC(=O)[C@@H](NC(=O)[C@H](Cc1ccccc1)NC(=O)[C@@H](NC(=O)CNC(=O)[C@H](CCC(=O)O)NC(=O)C(C)(C)NC(=O)[C@@H](N)Cc1ccc(O)cc1)[C@@H](C)O)[C@@H](C)O)[C@@H](C)CC)C(=O)N[C@@H](CCC(=O)O)C(=O)N[C@@H](CO)C(=O)N[C@@H](CCCNC(=N)N)C(=O)N[C@@H](C)C(=O)N[C@@H](C)C(=O)N[C@@H](CCC(N)=O)C(=O)N[C@@H](CCC(=O)O)C(=O)N[C@@H](Cc1ccccc1)C(=O)N[C@H](C(=O)N[C@@H](CCC(=O)O)C(=O)N[C@@H](Cc1c[nH]c2ccccc12)C(=O)N[C@@H](CC(C)C)C(=O)N[C@@H](CCCCN)C(=O)N[C@@H](C)C(=O)NCC(=O)NCC(=O)N1CCC[C@H]1C(=O)N[C@@H](CO)C(=O)N[C@@H](CO)C(=O)NCC(=O)N[C@@H](C)C(=O)N1CCC[C@H]1C(=O)N1CCC[C@H]1C(=O)N1CCC[C@H]1C(=O)N[C@@H](CO)C(N)=O)[C@@H](C)CC)C(=O)O", "note": "[SEQ ID NO: 39, Y-Aib-E-G-T-F-T-S-D-L-S-I-Q-K(γE-x53)-ESRAAQEFIEWLKAGGPSSGAPPPS-NH2] (H-Y[Aib]EGTFTSDLSIQK([γGlu-Palmitoyl])ESRAAQEFIEWLKAGGPSSGAPPPS-NH2)", "values": [
      {"measurement": "pEC50", "setting": "Table 7, cAMP formation", "result": 11.37}
    ]}
  ]
}
